# Results from patent US20160324992A1, “IDENTIFICATION AND TREATMENT OF VULNERABLE PLAQUES” (OTTAWA HEART INSTITUTE RESEARCH CORPORATION, priority 2015, published 2016).
# “Also recorded” adds a separate entry of the source.
# What was measured:
# [1] = Biodistribution in Sprague-Dawley rats; type: in vivo
# Protocol: (§1) Biodistribution studies were carried out on C57BL/6 mice weighing 19-21 g and Sprague Dawley rats weighing 400-560 g (Charles River Laboratories, Mass., USA). On the day of experimentation, the animals were anesthetized and maintained under isofluorane during the injection. A tail vein catheter was inserted, 5.3-6.7 MBq of 7-^123I-O-Nec-1 was administered to the mice and 3.1-3.3 MBq of 7-^123I-O-Nec-1 was injected into the rats. The animals were sacrificed at 1 hr or 2 hr post injection (p.i.) (n=3 per group). The heart, liver, kidney, muscle, femur, spleen, blood, brain, intestine, lung, stomach, urine/bladder, ovaries/testes and thyroid were extracted, weighed and analyzed for total gamma counts (Wizard 2 2480 Automatic Gamma Counter, Perkin Elmer). The tissue uptake was decay corrected, and the percentage of injected dose per gram (% ID/g) was calculated.
# [2] = system: atherosclerotic lesions in ApoE−/− mice; test: Ex vivo autoradiography of aorta, en face and Oil Red O comparison; type: in vivo, mouse; conditions: for localization of the tracer in the aorta (in words): ApoE−/− mice with established lesions, 2 hours after i.v. injection, en face aortic arch; for correlation between lesion area measured by tracer autoradiography and ORO / en face (in words): ApoE−/− mice, ex vivo
# Excerpt: Radiochemistry and ex vivo autoradiography study with ApoE^−/− mice. The tracer ^123I-Nec-1 (7-^123I-Nec-1) was synthesized by a Cu(I) catalyzed direct halogen exchange reaction with the precursor 7-Br-Nec-1 and Na^123I. Eight week-old female apolipoprotein E knockout (Apo E^−/−) mice were purchased from Charles River Laboratories and fed either a chow or western diet (TD.10885, Harlan Laboratories) for 2 months (total n=6 mice). 7-^123I-O-Nec-1 (37.0-55.5 MBq) was administrated intravenously into the mice under anesthetic. After 2 hr, the mice were euthanized and perfused with PBS followed by 10% formalin via left ventricle cannulation. Aorta was dissected from heart at the base using a dissecting microscope following removal of surrounding fat and connective tissue. En face specimens were immediately exposed to super resolution phosphor screens in an autoradiography cassette. After overnight exposure at room temperature, the screens were scanned with a Cyclone Phosphor Imager (Perkin Elmer, Downers Grove, Ill.). Images were analyzed using OptiQuant™ 5.0 software. The regions of interest (ROI) were drawn around the lesions on the aortic arch, and the counts in Digital Light Unit (DLU) and surface areas in mm^2 were measured. The DLU was converted to activity in μCi using a set of calibration standards with known activities, which were exposed and scanned on the same screen used for the aorta samples, as previously described (Zhao et al, 2007; Matter et al., 2006). The percentage injected dose (% ID) was calculated from dividing the activity (pCi) of the lesion by the injected activity. Activity density in % ID/m^2 was calculated and normalized by animal body weight to get % ID×kg/m^2. The areas of the lesions and the whole aortic arch in mm^2 were also recorded using the OptiQuant™ 5.0 software, and the percentage of lesion within the area of the aorta vessel wall was calculated.
# Ex vivo autoradiography study with ApoE^−/− mice. Eight week-old female apolipoprotein E knockout (Apo E^−/−) mice were purchased from Charles River Laboratories (Charles River, Canada) and fed either a chow or western diet (TD.10885, Harlan Laboratories) for 2 months (n=3 per group). […] 7-^123I-O-Nec-1 (37.0-55.5 MBq) was administrated intravenously into the mice under anesthetic. After 2 hr, the mice were euthanized in a CO2 chamber. Using a Gilson Minipuls 2 peristaltic pump, the mice were perfused with 20 mL phosphate buffered saline (PBS) followed by 10 mL of 10% formalin via left ventricle cannulation. Perfusate was drained from a cut within the right atrium. Aorta was dissected from heart at the base using a dissecting microscope following removal of surrounding fat and connective tissue. For en face experiments aortic tissues were flattened by a longitudinal cut through one side of the aortic wall cutting through the carotids and the innominant artery until the aorta was split forming a Y-shaped structure.
# The uptake and distribution of the tracer on aortic tissue was studied using digital autoradiography method. En face specimens were immediately exposed to super resolution phosphor screens in a Fisher Biotech autoradiography cassette. After overnight exposure at room temperature, the screens were scanned with a Cyclone Phosphor Imager (Perkin Elmer, Downers Grove, Ill.). Images were analyzed using OptiQuant™ 5.0 software. The regions of interest (ROI) were drawn around the lesions on the aortic arch, and the counts in Digital Light Unit (DLU) and surface areas in mm^2 were measured. The DLU was converted to activity in pCi using a set of calibration standards with known activities, which were exposed and scanned on the same screen used for the aorta samples. The percentage injected dose (% ID) was calculated from dividing the activity (pCi) of the lesion by the injected activity. Activity density in % ID/m^2 was calculated and normalized by animal body weight to get % ID×kg/m^2. […]
# Serum stability testing = type: in vitro ADME; conditions: 37° C., 24 hours, HPLC
# Protocol: Serum stability testing of 7-^123I-O-Nec-1. Serum stability testing was carried out by mixing 25 μL of 7-^123I-O-Nec-1 (5) and 100 μL of rat serum at 37 ° C. for 24 hours. […] cold EtOH was added afterwards, and the mixture was centrifuged at 2500 ×g at 4° C. for 15 minutes to precipitate proteins. The supernatant was injected into HPLC.
# [3] = Biodistribution in C57BL/6 mice; type: in vivo; conditions: for organ uptake: Blood / organ uptake: Brain / organ uptake: Femur / organ uptake: Heart / organ uptake: Intestine / organ uptake: Kidney / organ uptake: Liver / organ uptake: Lung / organ uptake: Muscle / organ uptake: Ovaries/testis / organ uptake: Spleen / organ uptake: Stomach / organ uptake: Thyroid / organ uptake: Urine: female C57BL/6 mice, i.v. 5.3-6.7 MBq, mean ± SD, n = 3
# Protocol: as §1
# [4] = male Sprague-Dawley rats, 2 hr p.i., i.v. 3.1-3.3 MBq, mean ± SD, n = 3
compound,measurement,setting,value
"CN1C(=O)NC(Cc2c[nH]c3c([123I])cccc23)C1=O (centres unmarked) [7-^123I-O-Nec-1, 5-((7-lodo (^123I)-1H-indol-3-yl)methyl)-3-methylimidazolidine-2,4-dione]",clearance of the tracer (in words),"[1]; biodistribution in Sprague-Dawley rats, i.v., 2 hr p.i.",fast renal and liver/gastrointestinal clearance; also recorded: excreted rapidly from the renal system
same,organ uptake: Blood,[1]; [4],0.153 ± 0.031 % ID/g
same,organ uptake: Brain,[1]; [4],0.023 ± 0.004 % ID/g
same,organ uptake: Femur,[1]; [4],0.052 ± 0.009 % ID/g
same,organ uptake: Heart,[1]; [4],0.098 ± 0.007 % ID/g
same,organ uptake: Intestine,[1]; [4],0.867 ± 0.062 % ID/g
same,organ uptake: Kidney,[1]; [4],0.236 ± 0.016 % ID/g
same,organ uptake: Liver,[1]; [4],0.226 ± 0.028 % ID/g
same,organ uptake: Lung,[1]; [4],0.143 ± 0.013 % ID/g
same,organ uptake: Muscle,[1]; [4],0.048 ± 0.005 % ID/g
same,organ uptake: Ovaries/testis,[1]; [4],0.089 ± 0.009 % ID/g
same,organ uptake: Spleen,[1]; [4],0.106 ± 0.009 % ID/g
same,organ uptake: Stomach,[1]; [4],1.685 ± 0.395 % ID/g
same,organ uptake: Thyroid,[1]; [4],1.407 ± 0.189 % ID/g
same,organ uptake: Urine,[1]; [4],2.513 ± 0.282 % ID/g
same,in vivo de-iodination (in words),[1]; normal Sprague-Dawley rats,some degree of in vivo de-iodination
same,aortic lesion uptake in HFD-fed ApoE−/− mice versus chow-fed ApoE−/− and control mice (in words),"[2]; 4 month old mice, 37.0-55.5 MBq i.v., 2 hr, n=3 per group",significantly higher tracer uptake
same,lesion uptake in chow-fed ApoE−/− mice versus aortic arch uptake of control mice (in words),"[2]; 4 month old mice, 2 hr p.i., p=0.3",similar; also recorded: not statistically significant
same,localization of the tracer in the aorta (in words),[2]; listed as 123I-Nec-1,primarily localized to areas of plaque accumulation
same,localization of the tracer in the aorta (in words),[2]; listed as 123INec-1,specifically localizes to advanced atherosclerotic lesion areas
same,correlation between lesion area measured by tracer autoradiography and ORO / en face (in words),[2],good correlation
same,correlation between lesion area measured by tracer autoradiography and ORO / en face (in words),[2]; listed as 123I-Nec-1,significant correlation
same,stability in rat serum,Serum stability testing,"stable in serum, no de-iodination or degradation was found; also recorded: stable in vitro in serum"
same,clearance of the tracer (in words),"[3]; biodistribution in C57BL/6 mice, i.v.",fast renal and liver/gastrointestinal clearance; also recorded: excreted rapidly from the renal system
same,organ uptake: Blood,[3]; 1 hr p.i.,3.149 ± 0.547 % ID/g
same,organ uptake: Brain,[3]; 1 hr p.i.,0.429 ± 0.170 % ID/g
same,organ uptake: Femur,[3]; 1 hr p.i.,1.167 ± 0.214 % ID/g
same,organ uptake: Heart,[3]; 1 hr p.i.,1.868 ± 0.519 % ID/g
same,organ uptake: Intestine,[3]; 1 hr p.i.,16.578 ± 1.224 % ID/g
same,organ uptake: Kidney,[3]; 1 hr p.i.,4.296 ± 1.084 % ID/g
same,organ uptake: Liver,[3]; 1 hr p.i.,4.030 ± 0.824 % ID/g
same,organ uptake: Lung,[3]; 1 hr p.i.,3.248 ± 0.788 % ID/g
same,organ uptake: Muscle,[3]; 1 hr p.i.,0.859 ± 0.278 % ID/g
same,organ uptake: Ovaries/testis,[3]; 1 hr p.i.,2.349 ± 0.570 % ID/g
same,organ uptake: Spleen,[3]; 1 hr p.i.,2.657 ± 0.390 % ID/g
same,organ uptake: Stomach,[3]; 1 hr p.i.,19.294 ± 2.556 % ID/g
same,organ uptake: Thyroid,[3]; 1 hr p.i.,7.344 ± 1.469 % ID/g
same,organ uptake: Urine,[3]; 1 hr p.i.,103.153 ± 41.005 % ID/g
same,organ uptake: Blood,[3]; 2 hr p.i.,3.136 ± 1.024 % ID/g
same,organ uptake: Brain,[3]; 2 hr p.i.,0.640 ± 0.847 % ID/g
same,organ uptake: Femur,[3]; 2 hr p.i.,1.189 ± 0.205 % ID/g
same,organ uptake: Heart,[3]; 2 hr p.i.,1.405 ± 0.484 % ID/g
same,organ uptake: Intestine,[3]; 2 hr p.i.,25.573 ± 19.206 % ID/g
same,organ uptake: Kidney,[3]; 2 hr p.i.,3.841 ± 0.429 % ID/g
same,organ uptake: Liver,[3]; 2 hr p.i.,2.562 ± 0.916 % ID/g
same,organ uptake: Lung,[3]; 2 hr p.i.,2.975 ± 1.025 % ID/g
same,organ uptake: Muscle,[3]; 2 hr p.i.,0.723 ± 0.307 % ID/g
same,organ uptake: Ovaries/testis,[3]; 2 hr p.i.,1.462 ± 0.184 % ID/g
same,organ uptake: Spleen,[3]; 2 hr p.i.,2.173 ± 0.728 % ID/g
same,organ uptake: Stomach,[3]; 2 hr p.i.,25.711 ± 4.877 % ID/g
same,organ uptake: Thyroid,[3]; 2 hr p.i.,18.387 ± 14.764 % ID/g
same,organ uptake: Urine,[3]; 2 hr p.i.,80.627 ± 12.850 % ID/g
same,in vivo de-iodination (in words),"[3]; normal C57BL/6 mice, thyroid and stomach uptake 1 hr to 2 hr p.i.",de-iodination over time; also recorded: some degree of in vivo de-iodination; also recorded: limited in vivo de-iodination
